Paper PMC8700061, “Fragment-Sized and Bidentate (Immuno)Proteasome Inhibitors Derived from Cysteine and Threonine Targeting Warheads” (Cells, 2021)

Assays:
Format in all cases: biochemical
hAChE = target: T1, hAChE (Homo sapiens, UniProt P22303); test: Cholinesterase assay (Ellman), hAChE; conditions: 30 min pre-incubation, read-out: Residual activity [%] ± SD, hAChE
T1 construct: gift of Xavier Brazzolotto, Florian Nachon and José Dias (IRBA, Brétigny-sur-Orge, France)
Description: (§1) The activity of the compounds against ChEs, namely hAChE and hBChE, was determined by the Ellman method. 5,5′-Dithiobis-2-nitrobenzoic acid (Ellman’s reagent; DTNB), butyrylthiocholine iodide, and acetylthiocholine iodides were from Sigma-Aldrich. Recombinant hAChE and hBChE were kindly provided by Xavier Brazzolotto, Florian Nachon, and José Dias (IRBA, Brétigny-sur-Orge, France). Reactions were performed in a final volume of 300 µL of 0.1 M phosphate-buffered solution, pH = 8.0, containing 370 µM DTNB, 500 μM butyrylthiocholine/acetylthiocholine iodide, and approximately 1 nM or 50–100 pM hBChE or hAChE, respectively. The reactions were started by the addition of the substrate after 30-min pre-incubation at room temperature. The final organic solvent (DMSO) content was always 1%. The formation of the yellow 5-thio-2-nitrobenzoate anion was monitored for 2 min at 412 nm, using a 96-well microplate reader (Synergy HT, BioTek Instruments, Inc., Santa Clara, CA, USA). The initial velocities in the presence (vi) and absence (vo) of the test compounds were calculated. Inhibitory potencies were expressed as residual activities (RA), according to the equation RA = (vi − b)/(vo − b), where b is the blank value.

β2 subunit of human cCP = target: T2, β2 subunit of human cCP (Homo sapiens, UniProt P49720+Q99436); test: Residual β2 activity, Boc-LRR-AMC; conditions: PA28α; for β2 (RA [%]): 10 µM; for remaining activity at 10 µM: Table 3, read-out: β2 (RA [%])
T2 construct: purchased Boston Biochem, Inc., Cambridge, MA, USA
Description: Residual activity measurements were performed at 10 μM final concentrations in the assay buffer (0.01% SDS, 50 mM Tris-HCl, 0.5 mM EDTA, pH 7.4). Stock solutions of the compounds were prepared in DMSO. To 50 μL of each compound in buffer, 25 μL of 0.8 nM human iCP or human cCP (both from Boston Biochem, Inc., Cambridge, MA, USA) were added. After incubation at 37 °C for 30 min, the reaction was started by adding of 25 μL of 100 μM relevant fluorogenic substrate: acetyl-Nle-Pro-Nle-Asp-AMC (Ac-nLPnLD-AMC, (Bachem, Bubendorf, Switzerland)) for β1, acetyl-Pro-Ala-Leu-7-amino-4-methylcoumarin (Ac-PAL-AMC, (Boston Biochem, Inc., Cambridge, MA, USA)) for β1i, t-butyloxycarbonyl-Leu-Arg-Arg-7-amino-4-methylcoumarin (Boc-LRR-AMC, (Bachem, Bubendorf, Switzerland)) for β2 and β2i, succinyl-Leu-Leu-Val-Tyr-7-amino-4-methylcoumarin (Suc-LLVY-AMC) (Bachem, Bubendorf, Switzerland) for β5 and β5i. Reaction progress was recorded on BioTek Synergy HT microplate reader by monitoring fluorescence at 460 nm (λex = 360 nm) for 90 min at 37 °C. The initial linear ranges were used to calculate velocity and determine residual activity. In the case of evaluation of β1, βi, β2, and β2i activities, the assay buffer was modified by replacing SDS with the proteasomal activator PA28α (Boston Biochem, Inc., Cambridge, MA, USA).

hBChE = target: T3, hBChE (Homo sapiens, UniProt P06276); test: Cholinesterase assay (Ellman), hBChE; conditions: 30 min pre-incubation, read-out: Residual activity [%] ± SD, hBChE
T3 construct: gift of Xavier Brazzolotto, Florian Nachon and José Dias (IRBA, Brétigny-sur-Orge, France)
Description: as §1

hMAO-B = target: T4, hMAO-B (Homo sapiens, UniProt P27338); test: Monoamine oxidase assay, hMAO-B; conditions: 30 min pre-incubation, read-out: Residual activity [%] ± SD, hMAO-B
T4 construct: purchased Sigma Aldrich; host or cells: BTI-TN-5B1-4 insect cells
T4 sequence (P27338 1-520): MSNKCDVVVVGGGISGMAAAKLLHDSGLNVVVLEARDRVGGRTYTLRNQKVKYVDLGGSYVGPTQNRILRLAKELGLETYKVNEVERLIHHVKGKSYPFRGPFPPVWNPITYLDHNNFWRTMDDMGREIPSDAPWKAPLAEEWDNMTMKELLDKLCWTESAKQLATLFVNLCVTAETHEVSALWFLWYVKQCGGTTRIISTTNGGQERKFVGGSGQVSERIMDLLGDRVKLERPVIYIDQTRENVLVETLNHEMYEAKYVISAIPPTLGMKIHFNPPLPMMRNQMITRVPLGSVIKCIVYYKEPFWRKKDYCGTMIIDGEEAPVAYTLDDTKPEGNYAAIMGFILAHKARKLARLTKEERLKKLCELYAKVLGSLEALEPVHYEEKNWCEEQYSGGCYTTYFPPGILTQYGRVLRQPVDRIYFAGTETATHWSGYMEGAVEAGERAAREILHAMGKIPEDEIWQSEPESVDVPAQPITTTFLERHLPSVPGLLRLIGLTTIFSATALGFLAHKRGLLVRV
Description: The effects of the test compounds on hMAO were investigated using fluorimetric assay. Recombinant hMAO-A and hMAO-B, expressed in BTI-TN-5B1-4 insect cells, horseradish peroxidase type II and p-tyramine hydrochloride were purchased from Sigma Aldrich. Amplex Red was synthesized as previously described.
Briefly, 50 mM sodium phosphate buffer (pH = 7.4, 0.05 vol.% Triton X-114) containing the compounds or the reference inhibitors and hMAO were incubated at 37 °C for 30 min. The reaction was started by adding Amplex Red (final concentration, 250 µM), horseradish peroxidase (final activity, 1 U/mL), and p-tyramine (final concentration, 1 mM). The increase in fluorescence (λex = 530 nm, λem = 590 nm) was monitored for 30 min at 37 °C. DMSO at a concentration of 1.5% (v/v) was used for the control experiments. For the determination of blank (b), the enzyme was replaced by phosphate-buffered solution. Each measurement was performed in duplicate. Inhibitory potencies were expressed as residual activities (RA), as described under the Cholinesterase assay section.

T3 sequence (P06276 29-602): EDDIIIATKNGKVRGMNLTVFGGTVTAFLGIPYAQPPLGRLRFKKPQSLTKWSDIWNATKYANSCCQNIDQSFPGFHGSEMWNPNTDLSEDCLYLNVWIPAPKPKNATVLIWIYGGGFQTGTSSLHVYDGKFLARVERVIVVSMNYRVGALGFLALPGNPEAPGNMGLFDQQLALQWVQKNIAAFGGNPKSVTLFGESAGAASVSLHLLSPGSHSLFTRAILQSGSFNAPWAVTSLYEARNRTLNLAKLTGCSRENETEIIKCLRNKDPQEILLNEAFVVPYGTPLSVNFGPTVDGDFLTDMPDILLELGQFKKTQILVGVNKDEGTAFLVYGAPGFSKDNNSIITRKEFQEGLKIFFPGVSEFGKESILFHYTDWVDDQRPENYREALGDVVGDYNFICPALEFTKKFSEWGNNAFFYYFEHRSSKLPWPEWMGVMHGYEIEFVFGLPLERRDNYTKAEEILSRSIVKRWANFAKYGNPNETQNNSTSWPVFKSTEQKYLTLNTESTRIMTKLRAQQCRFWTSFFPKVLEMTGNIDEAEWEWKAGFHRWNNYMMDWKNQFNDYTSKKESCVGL
T1 sequence (P22303 32-614): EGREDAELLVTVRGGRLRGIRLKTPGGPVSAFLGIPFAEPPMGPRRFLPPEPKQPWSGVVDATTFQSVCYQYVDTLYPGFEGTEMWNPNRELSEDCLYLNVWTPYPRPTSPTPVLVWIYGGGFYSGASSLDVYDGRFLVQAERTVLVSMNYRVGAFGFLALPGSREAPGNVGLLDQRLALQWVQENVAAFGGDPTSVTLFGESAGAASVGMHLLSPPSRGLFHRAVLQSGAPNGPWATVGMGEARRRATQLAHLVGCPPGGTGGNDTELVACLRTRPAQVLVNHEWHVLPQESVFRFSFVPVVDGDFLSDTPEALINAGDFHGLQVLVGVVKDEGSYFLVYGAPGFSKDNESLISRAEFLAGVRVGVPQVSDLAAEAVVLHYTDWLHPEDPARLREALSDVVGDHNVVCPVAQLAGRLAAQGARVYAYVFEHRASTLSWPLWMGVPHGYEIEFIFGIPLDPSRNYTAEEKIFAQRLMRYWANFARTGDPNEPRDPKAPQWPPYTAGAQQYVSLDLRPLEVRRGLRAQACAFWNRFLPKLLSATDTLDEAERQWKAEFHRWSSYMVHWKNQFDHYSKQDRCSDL

| SMILES | remaining activity at 100 µM (hAChE) [%] | β2 (RA [%]) (β2 subunit of human cCP; Table 6) | remaining activity at 100 µM (hBChE) [%] | remaining activity at 100 µM (hMAO-B) [%] | remaining activity at 10 µM (β2 subunit of human cCP) [%] | β2 (RA [%]) (β2 subunit of human cCP; Table 3) |
| --- | --- | --- | --- | --- | --- | --- |
| CC(C)C[C@H](NC(=O)CCn1c(C#N)nc2cccc(Cl)c21)B1O[C@@H]2C[C@@H]3C[C@@H](C3(C)C)[C@]2(C)O1 [Compound 38] | > 50 | NA (NA, Not active (RA above 95%)) | > 50 | 42 | – | – |
| N#Cc1nc2cc(O)ccc2o1 [Compound 11] | 27 ± 1 | – | > 50 | 29 | > 90 | – |
| C=Cc1nc(CC(=O)N[C@@H](CC(C)C)B2O[C@@H]3C[C@@H]4C[C@@H](C4(C)C)[C@]3(C)O2)cs1 [Compound 28] | > 50 | NA (NA, Not active (RA above 95%)) | 27 ± 3 | > 50 | – | – |
| CC(=O)Oc1ccc2oc(C#N)nc2c1 [Compound 15] | 33 ± 2 | – | > 50 | 33 | > 90 | – |
| N#Cc1nc2cccc(O)c2o1 [Compound 13] | 25 ± 1 | – | > 50 | > 50 | 71 | – |
| CC(C)C[C@H](NC(=O)Cc1ccc2oc(C#N)nc2c1)B(O)O [Compound 40] | 46 ± 1 | NA (NA, Not active (RA above 95%)) | 33 ± 1 | 44 | – | – |
| CC(C)C[C@H](NC(=O)Cc1ccc2oc(C#N)nc2c1)B1O[C@@H]2C[C@@H]3C[C@@H](C3(C)C)[C@]2(C)O1 [Compound 39] | > 50 | NA (NA, Not active (RA above 95%)) | 45 ± 1 | 47 ± 1 | – | – |
| CC(=O)Oc1cccc2oc(C#N)nc12 [Compound 14] | 11 ± 2 | – | > 50 | > 50 | > 90 | – |
| CC(C)C[C@H](NC(=O)CCCn1c(C#N)nc2ccccc21)B1O[C@@H]2C[C@@H]3C[C@@H](C3(C)C)[C@]2(C)O1 [Compound 31] | > 50 | NA (NA, Not active (RA above 95%)) | > 50 | > 50 | – | – |
| CC(C)C[C@H](NC(=O)CCn1c(C#N)nc2ccccc21)B1O[C@@H]2C[C@@H]3C[C@@H](C3(C)C)[C@]2(C)O1 [Compound 30] | > 50 | NA (NA, Not active (RA above 95%)) | > 50 | > 50 | – | – |
| COc1cccc2oc(C#N)nc12 [Compound 6] | > 50 | – | 36 ± 1 | 35 ± 1 | – | NA (NA, Not active (RA above 90%)) |
| N#Cc1nc2c(O)cccc2o1 [Compound 10] | 27 ± 2 | – | > 50 | > 50 | > 90 | – |
| CC(C)C[C@H](NC(=O)CCCn1c(C#N)nc2ccccc21)B(O)O [Compound 35] | > 50 | NA (NA, Not active (RA above 95%)) | > 50 | > 50 | – | – |
| CC(C)C[C@H](NC(=O)CCn1c(C#N)nc2ccccc21)B(O)O [Compound 34] | > 50 | NA (NA, Not active (RA above 95%)) | > 50 | > 50 | – | – |
